Source: patent US20190060296A1, “DISCOVERY OF SMALL MOLECULES THAT TARGET THE ANDROGEN RECEPTOR AND USES” (Massachusetts Institute of Technology, priority 2017, published 2019)

These compounds were tested against T1, AR-v7 (Homo sapiens, UniProt P10275) (assay: dual luciferase reporter assay, stable LNCaP cell line with AR-v7 under DOX control and MMTV-driven firefly luciferase). Conditions: Reporter Assay at 24 hours; dose response starting at 50 μM, serially diluted 1:1; LNCaP cells.
T1 construct: expressed in transfected cells
T1 sequence (P10275 1-644 isoform P10275-3): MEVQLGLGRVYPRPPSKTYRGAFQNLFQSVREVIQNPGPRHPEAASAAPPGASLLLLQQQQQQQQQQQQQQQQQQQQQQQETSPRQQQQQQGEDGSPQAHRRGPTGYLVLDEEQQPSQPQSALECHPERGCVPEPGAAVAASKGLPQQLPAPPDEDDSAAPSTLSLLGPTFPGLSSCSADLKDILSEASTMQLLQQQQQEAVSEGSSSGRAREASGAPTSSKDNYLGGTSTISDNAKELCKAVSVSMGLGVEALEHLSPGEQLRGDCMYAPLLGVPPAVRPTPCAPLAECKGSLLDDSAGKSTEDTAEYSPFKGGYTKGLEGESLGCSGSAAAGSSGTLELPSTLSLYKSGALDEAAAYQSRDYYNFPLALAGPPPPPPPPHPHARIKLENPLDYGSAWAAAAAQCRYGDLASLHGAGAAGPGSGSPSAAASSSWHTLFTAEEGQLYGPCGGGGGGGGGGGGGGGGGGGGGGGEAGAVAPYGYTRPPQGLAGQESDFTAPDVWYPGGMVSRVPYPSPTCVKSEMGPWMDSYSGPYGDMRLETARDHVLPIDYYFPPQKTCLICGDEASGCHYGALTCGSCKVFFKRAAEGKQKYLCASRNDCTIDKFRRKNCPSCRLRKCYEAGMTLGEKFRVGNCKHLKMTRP
Type: cell-based
Source text: CMV-driven Renilla luciferase is also included as a control. The relative luciferase activity is the firefly luciferase activity normalized to the Renilla luciferase activity. A “dual-reporter assay” is conceptually similar to the single reporter assay described above, and can correct for experimental variation (e.g., cell number, transfection efficiency, etc.). In the case of a dual-reporter assay, a “reporter system” is used, where cells are transfected with two plasmids, the first plasmid comprising the regulatory gene of interest and a first reporter, and the second plasmid comprising a constitutive promoter and a second reporter, wherein the second reporter and the first reporter have biologically distinct activities. The ratio of the first reporter activity (e.g., controlled by the regulatory gene of interest) relative to the second reporter activity (e.g., controlled by the constitutive promoter) corrects for experimental variation. […] In certain embodiments, one or more compounds selected from the SMM screen are submitted to a screen comprising a dual-luciferase assay, the dual-luciferase assay further comprising (i) a first vector comprising a first promoter and a first reporter and (ii) a second vector comprising a second promoter and a second reporter. In certain embodiments, the first vector comprises a first promoter and a first reporter, wherein the first promoter is the MMTV promoter and the first reporter is firefly luciferase. Activation of the androgen receptor, or variant thereof, will promote increased expression of the MMTV-driven firefly luciferase. In certain embodiments, the second vector comprises a second promoter and a second reporter, wherein the second promoter is the cytomegalovirus (CMV) promoter and the second reporter is Renilla luciferase. The CMV promoter is constitutively activated, leading to a basal expression level of Renilla luciferase that serves as a control and can be used to normalize the MMTV-driven firefly luciferase expression level. […] In an embodiment, the first luciferase is firefly luciferase. In an embodiment, the second luciferase is Renilla luciferase. […] In certain embodiments, the firefly luciferase is under control of an MMTV promoter that contains one or more androgen response element (ARE). […] In total, 50,000 molecules were screened against the androgen receptor variant AR-v7 (exons 1-3 truncate of AR-FL) using a small molecule microarray (SMM) (see FIG. 1). […] PSA was used as a readout for both AR-v7 and AR activity in the qPCR assay in LNCaP cells. Selected SMM assay positives were administered to cells at two doses (10 and 30 μM) and PSA expression was evaluated using the Single Shot qPCR kit (BioRad) (see FIG. 2).

For O=C(NCC[C@@H]1C[C@@H]2C=C[C@H]1C2)c1cccc(OC2CCN(C(=O)C3CC3)CC2)c1 (relative stereo) [KI-ARv-01, N-{2-[(1S*,2S*,4S*)-bicyclo[2.2.1]hept-5-en-2-yl]ethyl}-3-{[1-(cyclopropylcarbonyl)-4-piperidinyl]oxy}benzamide], which IC50 is on record?
The IC50 was 5.43 µM.

For Fc1ccc(N2CCCN(CC3[C@H]4CNC[C@@H]34)CC2)cc1 (relative stereo) [KI-ARv-04, (1R*,5S*,6r)-6-{[4-(4-fluorophenyl)-1,4-diazepan-1-yl]methyl}-3-azabicyclo[3.1.0]hexane], which IC50 is on record?
Its IC50 is 11.3 µM.

CS(=O)(=O)N1CCC(Oc2cccc(C(=O)NCC[C@@H]3C[C@@H]4C=C[C@H]3C4)c2)CC1 (relative stereo) [KI-ARv-08, N-{2-[(1S*,2S*,4S*)-bicyclo[2.2.1]hept-5-en-2-yl]ethyl}-3-{[1-(methylsulfonyl)-4-piperidinyl]oxy}benzamide] was tested. Which IC50 did it give?
The IC50 was 24.7 µM.

For COc1ccc(N2CCN(C(=O)c3sc4ncnc(NC[C@H]5C[C@@H]6C=C[C@H]5C6)c4c3C)CC2)cc1 (relative stereo) [KI-ARv-09, N-[(1R*,2S*,4R*)-bicyclo[2.2.1]hept-5-en-2-ylmethyl]-6-{[4-(4-methoxyphenyl)-1-piperazinyl]carbonyl}-5-methylthieno[2,3-d]pyrimidin-4-amine], which IC50 is on record?
Its IC50 is greater than 50 µM.

Which IC50 does the source give for Cc1c(C(=O)NCc2ccncc2)sc2ncnc(NC[C@H]3C[C@@H]4C=C[C@H]3C4)c12 (relative stereo) [RO3682, 4-{[(1R*,2S*,4R*)-bicyclo[2.2.1]hept-5-en-2-ylmethyl]amino}-5-methyl-N-(4-pyridinylmethyl)thieno[2,3-d]pyrimidine-6-carboxamide] here?
The IC50 was 12.5 µM.

For Cc1c(C(=O)N(C)Cc2cccc3ncccc23)sc2ncnc(NCC3C[C@@H]4C=C[C@H]3C4)c12 (stereo partly drawn) [KI-ARv-02, 4-((((1R,4R)-bicyclo[2.2.1]hept-5-en-2-yl)methyl)amino)-N,5-dimethyl-N-(quinolin-5-ylmethyl)thieno[2,3-d]pyrimidine-6-carboxamide], which IC50 is on record?
The IC50 was 6.86 µM.

Which IC50 does the source give for CCNc1ncc(-c2cc(-c3cc(C)sc3C)nc(N)c2C#N)cn1 [KI-ARv-05, 2-amino-6-(2,5-dimethyl-3-thienyl)-4-[2-(ethylamino)pyrimidin-5-yl]nicotinonitrile] here?
The IC50 was 50 µM.

Which IC50 does the source give for Cc1cc(N2CCC(NCc3cccc(N4CCCC4)c3)CC2)nc(N)n1 [KI-ARv-06, 4-methyl-6-{4-[(3-pyrrolidin-1-ylbenzyl)amino]piperidin-1-yl}pyrimidin-2-amine] here?
Its IC50 is 14.8 µM.
